The target of the test is T1, hM3 muscarinic receptor subtype (Homo sapiens, UniProt P20309).
T1 construct: expressed in transfected cells; membranes prepared
As to the kind of experiment: Radioligand binding assay, hM3 relative to hM2. The settings on record: ratio of Ki values from radioligand displacement. As to the method:
CHO (Chinese hamster ovary) cell lines stably expressing cloned human hM1, hM2, hM3 and hM4 muscarinic receptor subtypes, respectively, were grown to near confluency in medium consisting of HAM's F-12 supplemented with 10% FBS (Fetal Bovine Serum) and 250 μg/mL Geneticin. The cells were grown in a 5% CO2, 37° C. incubator and lifted with dPBS+2 mM EDTA. Cells were collected by 5 minute centrifugation at 650×g, and cell pellets were either stored frozen at −80° C. or membranes were prepared immediately. For membrane preparation, cell pellets were resuspended in lysis buffer and homogenized with a Polytron PT-2100 tissue disrupter (Kinematica AG; 20 seconds×2 bursts). Crude membranes were centrifuged at 40,000×g for 15 minutes at 4° C. […] Protein concentration of the membrane suspension was determined by the method of Lowry, O. et al., (1951) […]: 193, 265. […]
Radioligand binding assays were performed in 96-well microtiter plates in a total assay volume of 100 μL. […] Filter plates were rinsed three times with wash buffer (10 mM HEPES) to remove unbound radioactivity. […] The plates were then counted in a PerkinElmer Topcount liquid scintillation counter (PerkinElmer Inc., Wellesley, Mass.). Binding data were analyzed by nonlinear regression analysis with the GraphPad Prism Software package (GraphPad Software, Inc., San Diego, Calif.) using the one-site competition model. […]
(In general: In a radioligand displacement assay an active substance lowers the binding of a labelled ligand.)

Molecules are shown by their SMILES.

T1 sequence (P20309 whole entry): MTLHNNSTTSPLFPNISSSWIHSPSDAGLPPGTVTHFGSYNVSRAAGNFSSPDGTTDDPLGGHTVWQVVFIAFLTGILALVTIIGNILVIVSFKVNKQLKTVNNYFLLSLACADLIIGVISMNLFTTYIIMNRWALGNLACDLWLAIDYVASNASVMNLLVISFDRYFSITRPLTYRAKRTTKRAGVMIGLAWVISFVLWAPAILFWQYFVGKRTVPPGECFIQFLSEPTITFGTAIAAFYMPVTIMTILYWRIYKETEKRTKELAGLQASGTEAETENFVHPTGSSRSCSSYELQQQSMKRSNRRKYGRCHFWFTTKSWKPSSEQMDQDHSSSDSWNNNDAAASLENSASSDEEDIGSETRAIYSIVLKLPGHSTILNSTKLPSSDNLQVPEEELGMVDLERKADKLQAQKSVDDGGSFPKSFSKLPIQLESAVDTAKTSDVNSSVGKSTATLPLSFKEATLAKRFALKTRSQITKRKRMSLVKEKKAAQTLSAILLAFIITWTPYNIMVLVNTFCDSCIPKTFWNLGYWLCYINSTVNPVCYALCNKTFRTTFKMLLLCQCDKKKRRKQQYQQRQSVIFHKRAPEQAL

Regarding `COc1ccncc1CN1CCC(N(CCCCCCCN2CC[C@@H](C(C(N)=O)(c3ccccc3)c3ccccc3)C2)C(C)C)CC1` [Example 1], the hM3/hM2 ratio result was “greater than 40”.

For the origin of these results see patent publication US7285564B2, “Substituted 4-amino-1-(pyridylmethyl)piperidine and related compounds” (Theravance, Inc., priority 2002, dated 2007).
